Results on 28 compounds are retold here after patent US6579882B2, “Cell adhesion-inhibiting antiinflammatory compounds” (Abbott Laboratories, priority 1998, dated 2003).

Holding throughout (assay type): cell-based
Holding throughout (conditions): 1 μM compound, primary human umbilical vein endothelial cells, compound 24 hours, then TNF 5 ng/mL 6 hours; for inhibition at 1 µM: Homo sapiens, Endothelial cell

One test relates to ICAM-1. Description: CAM ELISA: ICAM-1 expression on TNF-stimulated HUVECs. The method, then: (§1) Pooled primary human umbilical vein endothelial cells (HtVEC's) (Clonetics) between passages 3 and 7 were plated in 96-well plates (Costar), 100 μL/well, 5×10^4 cells/mL in Clonetics EBM/2% FBS/EGF/Bovine brain extract/gentamicin in the absence of hydrocortisone. The following day, compounds of the invention were added in 10 μL/well medium, and the plates were incubated at 37° C. 24 hours after compound addition, TNF (Gibco/BRL) in 10 μL/well medium was added to a final concentration of 5 ng/mL, and the cells were incubated an additional 6 hours at 37° C. Then media was removed, and the plates were washed once with D-PBS (Gibco/BRL) and treated with primary antibodies (Becton Dickinson, City), 100 μL/well in D-PBS/2% BSA (Sigma)/0.01% azide. Primary antibodies at an initial concentration of 1 mg/mL were used at the following dilutions: anti-ELAM-1, 1:2000, anti-ICAM-1, 1:2000 and anti-VACM-1, 1:3000. Plates were stored overnight at 4° C., washed 3 times with D-PBS, and treated with secondary antibody (Jackson Labs), 100 μL/well 1:8000 dilution HRP-conjugated donkey anti-mouse IgG(H+L) in D-PBS/2%BSA. Plates were incubated a minimum of 1 hour at room temperature, washed 3 times with D-PBS and treated with 100 μL of orhto-phenylene diamine-2 HCl reagent per well. Plates were developed approximately 15 minutes and neutralized with 100 μL/well 1N sulfuric acid. Absorbance was read at 490 nm.

For a further test, the system named is VCAM-1. Description: CAM ELISA: VCAM-1 expression on TNF-stimulated HUVECs. The method, then: as §1
The subject of the next test is E-Selectin. Description: CAM ELISA: E-selectin expression on TNF-stimulated HUVECs. The method, then:
as §1

On to `CNC(=O)c1cc2c(Oc3ccc(N4CCOCC4)cc3)cncc2s1` [Example 190C, N-Methyl-4-[4-(4-morpholinyl)phenoxy]thieno[2,3-c]pyridine-2-carboxamide], for which the inhibition at 1 µM in the test with ICAM-1 came to 65%; with VCAM-1, 37%; in the test with E-Selectin, 70%.

Take `CNC(=O)c1cc2c(Oc3ccc(C(C)=O)cc3)cncc2s1` [Example 202, 4-(4-Acetylphenoxy)-N-methylthieno[2,3-c]pyridine-2-carboxamide]: the inhibition at 1 µM with ICAM-1 came out at 68%; with VCAM-1, 49%; with E-Selectin it was 80%.

Consider `CNC(=O)c1cc2c(Oc3ccc(/C=C/C(=O)NCCN4CCOCC4)cc3)cncc2s1` [Example 210], for which the “CAM ELISA % Inhibition at 1 μM ICAM-1” value with ICAM-1 is reported as 58%. Further, in the test with VCAM-1, the “CAM ELISA % Inhibition at 1 μM VCAM-1” value was 42%. For the same compound, in the test with E-Selectin, the “CAM ELISA % Inhibition at 1 μM E-Selectin” value was determined as 64%.

Take `NC(=O)c1cc2c(Oc3ccc(-n4ccnc4)cc3)cncc2s1` [Example 217, 4-[4-(1H-Imidazol-1-yl)phenoxy]thieno[2,3-c]pyridine-2-carboxamide]: the inhibition at 1 µM in the test with ICAM-1 was found to be 63%; in the test on VCAM-1 it was 42%; with E-Selectin, 64%.

Regarding `CNC(=O)c1cc2c(Oc3ccc(-n4cccn4)cc3)cncc2s1` [Example 218, N-Methyl-4-[4-(1H-pyrazol-1-yl)phenoxy]thieno[2,3-c]pyridine-2-carboxamide], the values for the inhibition at 1 µM in the test with ICAM-1, in the test with VCAM-1 and with E-Selectin were 64%, 51% and 66%, respectively.

Take `CNC(=O)c1cc2c(Oc3ccc(-n4cncn4)cc3)cncc2s1` [Example 219, N-Methyl-4-[4-(1H-1,2,4-triazol-1-yl)phenoxy]thieno[2,3-c]pyridine-2-carboxamide]: the inhibition at 1 µM in the test on ICAM-1 stood at 68%; in the test with VCAM-1 it was 50%; in the test with E-Selectin, 62%.

As to `CNC(=O)c1cc2c(Oc3ccc(-c4noc(C(F)(F)F)n4)cc3)cncc2s1` [Example 220, N-Methyl-4-[4-[5-(trifluoromethyl)-1,2,4-oxadiazol-3-yl]phenoxy]thieno[2,3-c]pyridine-2-carboxamide], the inhibition at 1 µM worked out at 51% in the test with ICAM-1, 32% in the test with VCAM-1 and 60% in the test with E-Selectin.

Take `CNC(=O)c1cc2c(Oc3ccc(-c4cccs4)cc3)cncc2s1` [Example 222, N-Methyl-4-[4-(2-thienyl)phenoxy]thieno[2,3-c]pyridine-2-carboxamide]: the inhibition at 1 µM was 42% in the test on ICAM-1, 44% in the test on VCAM-1 and 40% in the test with E-Selectin.

Take `CNC(=O)c1cc2c(Oc3ccc(-c4ccccc4)cc3)cncc2s1` [Example 223]: in the test on ICAM-1, the “CAM ELISA % Inhibition at 1 μM ICAM-1” value is 36%. Besides, in the test on VCAM-1, the “CAM ELISA % Inhibition at 1 μM VCAM-1” value turned out to be 36%. For the same compound, the “CAM ELISA % Inhibition at 1 μM E-Selectin” value in the test with E-Selectin came to 34%.

As to `CNC(=O)c1cc2c(Oc3ccc(-c4cncn4C)cc3)cncc2s1` [Example 224, N-Methyl-4-[4-(1-methyl-1H-imidazol-5-yl)phenoxy]thieno[2,3-c]pyridine-2-carboxamide], the inhibition at 1 µM is 55% in the test on ICAM-1, 41% with VCAM-1 and 61% in the test with E-Selectin.

Turning to `CNC(=O)c1cc2c(Oc3ccc(C4(CO)CC4)cc3)cncc2s1` [Example 225, 4-{4-[1-(Hydroxymethyl)cyclopropyl]phenoxy}-N-methylthieno[2,3-c]pyridine-2-carboxamide], the inhibition at 1 µM in the test with ICAM-1 was found to be 78%; with VCAM-1, 60%; in the test with E-Selectin, 75%.

For `CCOCCOCCOCC1(c2ccc(Oc3cncc4sc(C(=O)NC)cc34)cc2)CC1` [Example 226], the “CAM ELISA % Inhibition at 1 μM ICAM-1” value with ICAM-1 is reported as 74%. The “CAM ELISA % Inhibition at 1 μM VCAM-1” value with VCAM-1 was 56%. In the test with E-Selectin, the “CAM ELISA % Inhibition at 1 μM E-Selectin” value is 77%.

Turning to `CNC(=O)c1cc2c(Oc3ccc(OC(F)(F)F)cc3)cncc2s1` [Example 227, N-Methyl-4-[4-(trifluoromethoxy)phenoxy]thieno[2,3-c]pyridine-2-carboxamide], the inhibition at 1 µM with ICAM-1 worked out at 62%; in the test with VCAM-1, 44%; with E-Selectin, 61%.

On to `CNC(=O)c1cc2c(Oc3ccc(C(F)(F)CO)cc3)cncc2s1` [Example 229], for which the “CAM ELISA % Inhibition at 1 μM ICAM-1” value with ICAM-1 stood at 55%. In the test on VCAM-1, the “CAM ELISA % Inhibition at 1 μM VCAM-1” value was 46%. Further, the “CAM ELISA % Inhibition at 1 μM E-Selectin” value with E-Selectin is reported as 54%.

With `CCOCCOCCOCC(F)(F)c1ccc(Oc2cncc3sc(C(=O)NC)cc23)cc1` [Example 230, 4-(4-[2-[2-(2-Ethoxyethoxy)ethoxy]-1,1-difluoroethyl]phenoxy)-N-methylthieno[2,3-c]pyridine-2-carboxamide], the inhibition at 1 µM was found to be 53% in the test on ICAM-1, 45% in the test with VCAM-1 and 56% in the test on E-Selectin.

With `CC(C)OC(=O)OC[n+]1cc(Oc2ccc(Cl)cc2)c2cc(C(N)=O)sc2c1` [Example 233, 2-(Aminocarbonyl)-4-(4-chlorophenoxy)-6-{[(isopropoxycarbonyl)oxy]methyl}thieno[2,3-c]pyridin-6-ium], the “CAM ELISA % Inhibition at 1 μM ICAM-1” value with ICAM-1 is 79%. Moreover, the “CAM ELISA % Inhibition at 1 μM VCAM-1” value in the test on VCAM-1 was 62%. In addition, in the test with E-Selectin, the “CAM ELISA % Inhibition at 1 μM E-Selectin” value is 74%.

Regarding `NC(=O)c1cc2c(OCc3ccccc3)cncc2s1` [Example 236, 4-(Benzyloxy)thieno[2,3-c]pyljdine-2-carboxamide], the “CAM ELISA % Inhibition at 1 μM ICAM-1” value in the test on ICAM-1 is reported as 59%. In the test with VCAM-1, the “CAM ELISA % Inhibition at 1 μM VCAM-1” value was 33%. In addition, the “CAM ELISA % Inhibition at 1 μM E-Selectin” value in the test with E-Selectin was found to be 59%.

Turning to `NC(=O)c1cc2c(C(=O)Nc3ccc(Cl)cc3)cncc2s1` [Example 238, N-4-(4-Chlorophenyl)thieno[2,3-c]pyridine-2,4-dicarboxamide], in the test on ICAM-1, the “CAM ELISA % Inhibition at 1 μM ICAM-1” value stood at 47%. The “CAM ELISA % Inhibition at 1 μM VCAM-1” value in the test on VCAM-1 was determined as 17%. The “CAM ELISA % Inhibition at 1 μM E-Selectin” value in the test with E-Selectin amounted to 46%.

Turning to `OCC(O)c1cc2c(Oc3ccc(Cl)cc3)cncc2s1` (stereo not drawn) [Example 254, 1-[4-(4-Chlorophenoxy)thieno[2,3-c]pyridin-2-yl]-1,2-ethanediol], the inhibition at 1 µM with ICAM-1 was 28%; in the test with VCAM-1, 24%; in the test with E-Selectin, 24%.

With `OCC(O)c1cc2c(Oc3ccc(Br)cc3)cncc2s1` (stereo not drawn) [Example 255, 1-[4-(4-Bromophenoxy)thieno[2,3-c]pjridin-2-yl]-1,2-ethanediol], the “CAM ELISA % Inhibition at 1 μM ICAM-1” value with ICAM-1 is reported as 65%. In the test with VCAM-1, the “CAM ELISA % Inhibition at 1 μM VCAM-1” value amounted to 19%. The “CAM ELISA % Inhibition at 1 μM E-Selectin” value in the test with E-Selectin was 67%.

As to `CNC(=O)C(O)C(O)c1cc2c(Oc3ccc(Br)cc3)cncc2s1` (stereo not drawn) [Example 261, Methyl 3-[4-(4-Bromophenoxy)thieno[2,3-c]pyridin-2-yl]-2,3-dihydroxypropanamide], the values for the inhibition at 1 µM in the test with ICAM-1, with VCAM-1 and in the test with E-Selectin were 16%, 0% and 20%, respectively.

For `Nc1nnc(-c2cc3c(Oc4ccc(Cl)cc4)cncc3s2)o1` [Example 275, 5-[4-(4-Chlorophenoxy)thieno[2,3-c]pyridin-2-yl]-1,3,4-oxadiazol-2-amine], the inhibition at 1 µM was 72% with ICAM-1, 64% in the test with VCAM-1 and 73% in the test with E-Selectin.

In the case of `Nc1nnc(-c2cc3c(Oc4ccc(Br)cc4)cncc3s2)o1` [Example 276, 5-[4-(4-Bromophenoxy)thieno[2,3-c]pyridin-2-yl]-1,3,4-oxadiazol-2-ylamine], the inhibition at 1 µM came out at 61% with ICAM-1, 52% in the test on VCAM-1 and 66% with E-Selectin.

Turning to `Nc1nnc(-c2cc3c(Oc4ccc(C(F)(F)F)cc4)cncc3s2)o1` [Example 280, 5-{4-[4-(Trifluoromethyl)phenoxy]thieno[2,3-c]pyridin-2-yl}-1,3,4-oxadiazol-2-amine], the inhibition at 1 µM was 77% in the test on ICAM-1, 69% in the test with VCAM-1 and 73% in the test with E-Selectin.

Turning to `CSc1nnc(-c2cc3c(Oc4ccc(Cl)cc4)cncc3s2)o1` [Example 281], the “CAM ELISA % Inhibition at 1 μM ICAM-1” value in the test on ICAM-1 was determined as 25%. In addition, the “CAM ELISA % Inhibition at 1 μM VCAM-1” value in the test with VCAM-1 came out at 20%. Further, the “CAM ELISA % Inhibition at 1 μM E-Selectin” value with E-Selectin worked out at 18%.

On to `Clc1ccc(Oc2cncc3sc(-c4nnn[nH]4)cc23)cc1` [Example 282A, 4-(4-Chlorophenoxy)-2-(1,2,3,4-tetrazol-5-yl)thieno[2,3-c]pyridine], for which the inhibition at 1 µM was 15% with ICAM-1, 5% in the test on VCAM-1 and 8% with E-Selectin.

`Clc1ccc(Oc2cncc3sc(-c4ncon4)cc23)cc1` [Example 287, 4-(4-Chlorophenoxy)-2-(1,2,4-oxadiazol-3-yl)thieno[2,3-c]pyridine]: the inhibition at 1 µM amounted to 49% in the test on ICAM-1, 27% in the test with VCAM-1 and 49% in the test on E-Selectin.

Take `Nc1nc(-c2cc3c(Oc4ccc(Cl)cc4)cncc3s2)no1` [Example 289, 3-[4-(4-Chlorophenoxy)thieno[2,3-c]pyridin-2-yl]-1,2,4-oxadiazol-5-amine]: the inhibition at 1 µM was found to be 62% in the test with ICAM-1, 52% with VCAM-1 and 64% with E-Selectin.
